Reference: paper PMC9944328 (Nature Communications, 2023)

Test system: SSTR2
Test: SSTR2 internalization by ELISA, HEK293, 30 min 37 °C (wild-type)
Type: cell-based, human
Conditions: for Internalization of wild-type SSTR2: same concentration for both drugs, also confocal and Bystander BRET
Protocol: HEK293 cells were seeded into 96-well microplates at a density of 4 × 10^4 cells/well and cultured for 24 h at 37 °C with 5% CO2 and were transfected using the same procedure as the cAMP accumulation assay. The plates were washed with washing buffer (PBS) the day after transfection, and were fixed with 4% formalin at room temperature for 30 min. Cells were washed with washing buffer and blocked with PBS supplemented with 5% BSA for 1 h at room temperature. After that, cells were incubated with anti-Flag antibody (1:1000 diluted with PBS containing 5% BSA, Proteintech: 66008-4-Ig) for 1 h at room temperature. After 1 h incubation, cells were washed with washing buffer and incubating with HRP-conjugated secondary antibody for 2 h at room temperature. After incubating and washing, 50 μl of chromogenic solution was added to each well, and reacted at room temperature for 10 min, and then 0.5 M HCl were added to stop the reaction.
All data presented are means at least three independent experiments.

Structure (SMILES) | Receptor internalization (SSTR2 WT, compared with octreotide, Fig. 1d–f) | Internalization of wild-type SSTR2
N#Cc1cccc(-c2ccc3ncc(-c4cc(F)cc(F)c4)c(N4CCC(N)CC4)c3c2)c1O [paltusotine] | less receptor internalization | reduced
C[C@@H](O)[C@@H]1NC(=O)[C@H](CCCCN)NC(=O)[C@@H](Cc2c[nH]c3ccccc23)NC(=O)[C@H](Cc2ccccc2)NC(=O)[C@@H](NC(=O)[C@H](N)Cc2ccccc2)CSSC[C@@H](C(=O)N[C@H](CO)[C@@H](C)O)NC1=O [octreotide] |  | obviously internalized
